Source: patent publication US12214058B2, “Imaging methods using deuterated compounds” (Genentech, Inc., priority 2014, dated 2025)
Several values for one entry are separate records, joined by “and”; a condition that tells them apart may be missing. Identical values can stand only once.

What was measured:
[1] = Microsomal stability assay, human liver microsomes; format: in vitro ADME; details: radiolabeled, 45 min incubation, n=3
Method: Microsomal stability assays The tracer [^18F][A]-d2 or [^18F][A] was dissolved in potassium phosphate (Kpi) buffer (100 mM) at concentration 500-600 μCi/mL. The non-radioactive 7 and 10 were dissolved in Kpi buffer at 10 μM concentration. The reaction vessel was charged with human or mouse liver microsome suspension (12.5 μL, 20 mg/mL) followed by Kpi buffer (388 μL, 10 mM), NADPH (50 μL, 10 mM) and incubated at 37° C. for 5-10 min. A solution of the radioactive [^18F][A]-d2 or [^18F][A] (50 μL, […]) or non-radioactive 7 or […] (50 μL, 10 μM) were added to the reaction vessel and the mixture was incubated at 37° C. […] The supernatant was analyzed by LCMS (System E).

[2] = Microsomal stability assay, mouse liver microsomes; format: in vitro ADME; details: radiolabeled, 5 min, n=3
Method: Microsomal stability assays The tracer [^18F][A]-d2 or [^18F][A] was dissolved in potassium phosphate (Kpi) buffer (100 mM) at concentration 500-600 μCi/mL. The non-radioactive 7 and 10 were dissolved in Kpi buffer at 10 μM concentration. The reaction vessel was charged with human or mouse liver microsome suspension (12.5 μL, 20 mg/mL) followed by Kpi buffer (388 μL, 10 mM), NADPH (50 μL, 10 mM) and incubated at 37° C. for 5-10 min. A solution of the radioactive [^18F][A]-d2 or [^18F][A] (50 μL, 250-300 μCi) or non-radioactive 7 or 8 (50 μL, 10 μM) were added to the reaction vessel and the mixture was incubated at 37° C. Aliquots (50 μL) of the reaction mixture were taken at 5, 15 and 45 minutes post addition of the tested compound, mixed with ice-cold acetonitrile (100 μL) and centrifuged. The supernatant was analyzed by LCMS (System E).

[3] = tested on: tau; experiment: Human PET imaging with [18F][A]-d2 (SUVR); format: in vivo; details: for SUVR Frontal lobe / SUVR Occipital lobe / SUVR Parietal lobe / SUVR Temporal lobe / SUVR White matter: cerebellum gray as reference
Description: A total of 5 subjects, 3 Alzheimer's disease (AD) patients and 2 healthy volunteers (HV) was used in this study. This study protocol required each subject to complete the following components: screening evaluation, MRI, [^18F]florbetapir (AD subjects only) and [^18F][A]-d2. The screening procedures included neuropsychological assessment, vital signs, ECG, physical exam, MRI, and [^18F]florbetapir PET imaging to confirm presence of amyloid deposition in patients clinically diagnosed with probable AD. In addition, each subject completed clinical assessments and clinical safety labs to ensure the subject was medically stable to complete the study protocol. The screening procedures occurred within 30 days prior to [^18F][A]-d2 imaging. Eligible subjects participated in a single [^18F][A]-d2 imaging session. The distribution of tau binding was assessed in each of the subject groups (AD and HV) to evaluate for binding to tau. For each AD subject, the distribution of Aβ and tau was compared. Tau binding in brain was assessed with PET using [^18F][A]-d2. Radioligand binding was compared in brains of HV subjects who should have minimal to negligible concentrations of tau compared to patients with AD, who are expected to have moderate to high densities of tau.
All subjects received a single injection of [^18F][A]-d2. Subjects received a bolus intravenous injection of no more than 370 MBq (˜10 mCi).
Images were acquired using a HR+ PET camera in three-dimensional mode and were reconstructed using an iterative algorithm including scatter and measured attenuation correction (^68Ge source). Dynamic images were acquired upon injection (˜370 MBq). The scanning protocol consisted of 2 scanning segments in the two healthy control (HC) subjects, Subjects 1 & 2 (0-120 min and ˜150-180 min) and of 3 segments in the suspected AD patient, Subject 3 (0-60 min, 93-123 min and 147-177 min).
The MR volumetric image, a summed image of the first 15 min after tracer administration of [^18F][A]-d2 were coregistered using Statistical Parametic Mapping SPM8 (software provided by members and collaborators of the Wellcome Trust Centre for Neuroimaging). Alignment of the additional PET segments to the first PET segment was performed using in-house developed analysis software written in Matlab® (version 8 Release 2014a). Then, using the MRI scan for anatomical delineation, irregular regions of interest (ROI) were drawn for each subject in the frontal, parietal, occipital, and temporal lobes, cerebellum gray, and white-matter (centrum semi-ovale) using MIM® software.
[^18F][A]-d2 tissue time activity curves (TAC) were expressed in SUV (Standardized Uptake Value) using each subject's weight and the corresponding tracer injected dose: TAC(SUV)=TAC(Bq/cm^3)×1000 cm^3/kg×Subject's weight(kg)/Injected dose(Bq). TAC creation and all subsequent analyses were performed using in-house developed analysis software written in Matlab®.
The ratio to cerebellum gray or standardized uptake value ratio (SUVR) was calculated. […] A clear separation of the curves is observed as early as 30 min post injection. The SUVR curves in the two healthy controls remained relatively constant soon after injection. The SUVR in the AD subject reached a plateau in the 90-120 min interval.

[4] = 40-60 min interval, Subject 1 (HC)
[5] = 40-60 min interval, Subject 2 (HC)
[6] = 40-60 min interval, Subject 3 (AD)
[7] = 90-120 min interval, Subject 1 (HC)
[8] = 90-120 min interval, Subject 2 (HC)
[9] = 90-120 min interval, Subject 3 (AD)

Structure (SMILES): [2H]C([2H])([18F])CC1CCN(c2ccn3c(n2)nc2ccccc23)CC1 [[^18F][A]-d2, 1,1-dideutero-2-(1-(benzo[4,5]imidazo[1,2-a]pyrimidine-2-yl)piperidin-4-yl)-1-[^18F]fluoroethane]
- fraction attributed to parent compound [1]: 91.7±0.21% and 67.1±6.3%
- amount of parent compound [2]: 2.0±0.3%
- SUVR Frontal lobe [3, 4]: 1.08
- SUVR Occipital lobe [3, 4]: 1.15
- SUVR Parietal lobe [3, 4]: 1.09
- SUVR Temporal lobe [3, 4]: 1.14
- SUVR White matter [3, 4]: 0.85
- SUVR Frontal lobe [3, 5]: 1.12
- SUVR Occipital lobe [3, 5]: 1.19
- SUVR Parietal lobe [3, 5]: 1.13
- SUVR Temporal lobe [3, 5]: 1.18
- SUVR White matter [3, 5]: 0.80
- SUVR Frontal lobe [3, 6]: 1.16
- SUVR Occipital lobe [3, 6]: 1.60
- SUVR Parietal lobe [3, 6]: 1.35
- SUVR Temporal lobe [3, 6]: 1.82
- SUVR White matter [3, 6]: 0.88
- SUVR Frontal lobe [3, 7]: 1.07
- SUVR Occipital lobe [3, 7]: 1.19
- SUVR Parietal lobe [3, 7]: 1.07
- SUVR Temporal lobe [3, 7]: 1.13
- SUVR White matter [3, 7]: 0.76
- SUVR Frontal lobe [3, 8]: 1.17
- SUVR Occipital lobe [3, 8]: 1.21
- SUVR Parietal lobe [3, 8]: 1.07
- SUVR Temporal lobe [3, 8]: 1.18
- SUVR White matter [3, 8]: 0.66
- SUVR Frontal lobe [3, 9]: 1.25
- SUVR Occipital lobe [3, 9]: 1.87
- SUVR Parietal lobe [3, 9]: 1.52
- SUVR Temporal lobe [3, 9]: 2.25
- SUVR White matter [3, 9]: 0.81
- radioactivity uptake in bone tissue ([3]; Subjects 1-3, human PET images): no radioactivity uptake in bone tissue
